“Also recorded” adds a separate entry of the source.
How the values were obtained:
[1] = test system: breast cancer cells (BRCA011); test: Alexa Fluor 488 anti-mouse IgG transfection, immunofluorescent staining; format: cell-based, human; conditions: after 24 hours of incubation
Protocol: (§1) Immunofluorescent staining procedure: After protein transfection is completed, the cells in the culture dish were washed three times with phosphate buffered saline (PBS) and fixed with 4% paraformaldehyde for 20 min. The cells were washed again with PBS, perforated with 0.1% Triton X-100 for 5 min, and blocked with 10% BSA for 30 min. For Alexa Fluor 488 anti-mouse IgGs, cells were stained with DAPI for 10 min. For B23, histone 1 or GAPDH antibody transfection, cells were stained with Alexa Fluor 488 or 546 anti-mouse IgG antibodies for 30 min and then stained with DAPI. For […]1 proteins or Flag-Rev peptides transfection, cells were stained with anti-v5 or anti-flag antibodies, respectively, and then stained with Alexa Fluor 488 anti-mouse IgG and DAPI. All images were detected by confocal microscopes (Leica, Wetzlar, Germany). The fluorescent signals were analyzed and quantified by Q-Win software (Leica, Wetzlar, Germany). FIG. 1 schematically illustrates the protein transfection procedure. Briefly, the protein of interest and a protein transfection composition, such as HEPES buffer, were mixed and incubated for about 15 min to about 30 min to form a mixture (Panel A). […] The protein transfection efficiency can be analyzed using immunofluorescent staining or flow cytometry (Panel D). […] The protein transfection efficiency was assessed by flow cytometry or confocal microscope.

[2] = test system: breast cancer cells (BRCA009); test: as above; format: cell-based, human; conditions: after 6 hours of incubation
Protocol: as §1

[3] = test system: human ovarian cancer cells (MDAH2774); test: Protein transfection, immunofluorescent staining / confocal microscopy; format: cell-based
Protocol: Immunofluorescent staining procedure: After protein transfection is completed, the cells in the culture dish were washed three times with phosphate buffered saline (PBS) and fixed with 4% paraformaldehyde for 20 min. The cells were washed again with PBS, perforated with 0.1% Triton X-100 for 5 min, and blocked with 10% BSA for 30 min. For Alexa Fluor 488 anti-mouse IgGs, cells were stained with DAPI for 10 min. For B23, histone 1 or GAPDH antibody transfection, cells were stained with Alexa Fluor 488 or 546 anti-mouse IgG antibodies for 30 min and then stained with DAPI. For rhSTIP1 proteins or Flag-Rev peptides transfection, cells were stained with anti-v5 or anti-flag antibodies, respectively, and then stained with Alexa Fluor 488 anti-mouse IgG and DAPI. All images were detected by confocal microscopes (Leica, Wetzlar, Germany). The fluorescent signals were analyzed and quantified by Q-Win software (Leica, Wetzlar, Germany).
FIG. 1 schematically illustrates the protein transfection procedure. Briefly, the protein of interest and a protein transfection composition, such as HEPES buffer, were mixed and incubated for about 15 min to about 30 min to form a mixture (Panel A). Cells to be transfected were replaced in a minimal essential medium (Panel B). The mixture in Panel A was added to the cells in Panel B and incubated at 37° C. for about 4 to about 24 hours (Panel C). The protein transfection efficiency can be analyzed using immunofluorescent staining or flow cytometry (Panel D).
An in vitro evaluation of the optimal protein transfection condition was performed. According to the steps in FIG. 1. rhSTIP1 was incubated with HEPES buffers of different concentrations (5 or 20 mM) or Opti-MEM (control) at room temperature for about 15 minutes to form the protein mixtures to transfect human ovarian cancer cells. The mixtures were added to the cell culture dish comprising Opti-MEM and incubated at 37° C. for about 4 to about 24 hours.
Different amounts of Alexa Fluor® 488 anti-mouse IgG (0, 2, 4, 8, or 16 μg) were incubated with 20 mM HEPES buffer and mixed with ovarian (MDAH2774) cancer cells in Opti-MEM.
Alexa Fluor 488 anti-mouse IgG antibodies were mixed with 20 mM HEPES to form a mixture. […] Protein transfection efficiency was assessed using confocal fluorescent microscope.
The following proteins were incubated with Opti-MEM (control group) or 20-30 mM HEPES buffer to transfect ovarian cancer cells (MDAH2774 or MOSEC) or endometrial cancer cells: Alexa Fluor 488-conjugated, anti-mouse IgG antibody (about 150 kDa), anti-B23 antibody, anti-histone 1 antibody, anti-STIP1 antibody, rhSTIP1 protein (62.6 kDa), Flag-Rev peptide (<5 kDa) and FITC-Rev peptide (<5 kDa). […] Protein transfection efficiency was assessed by staining the transfected cancer cells with Alexa Fluor 488 or 594 anti-mouse IgG antibodies (for Alexa Fluor 488-conjugated anti-mouse IgG antibody, anti-B23 antibody, anti-histone 1 antibody, anti-STIP1 antibody), v5 antibody (for rhSTIP1), or anti-Flag antibody (for Flag-Rev peptide), and fluorescent signals were analyzed with confocal microscopy.
The protein transfection efficiency of HEPES was compared to other commercial reagents, such as PULsin™, ProteoJuice™, Pro-Ject™, Xfect™, and BioPORTER®. […] The transfected ovarian cancer cells were stained with Alexa Fluor 488 anti-mouse IgG antibodies and protein transfection efficiency was assessed by confocal fluorescent microscopy.

endometrial cancer cells = test: Cytotoxicity of HEPES buffer concentrations (MTT and LDH assay); format: cell-based, human; conditions: Opti-MEM and HEPES buffer 0-200 mM, 24 h
Protocol: (§2) MTT and LDH assay: In MTT assay, the cells were incubated for 24 h and then centrifuged at 1500 rpm for 5 min. The supernatants were discarded and attached cells were analyzed by MTT reagent (Promega Corporation, Wisconsin, US). In LDH assay, the cells were incubated for […] and then centrifuged at 1500 rpm for 5 min. The supernatants were collected and analyzed by LDH reagent (Sigma, St. Louis, Mo., USA). The cell viability (MTT assay) and cytotoxicity (LDH assay) were assayed following the manufacturer's protocol. The MTT and LDH signals were detected by ELISA Reader (Tecan Systems, Inc., San Jose, Calif., USA).
(§3) The cytotoxicity of various HEPES buffer concentrations was evaluated. Human ovarian cancer cells and endometrial cancer cells were incubated in Opti-MEM and HEPES buffer (0-200 mM) for 24 h. Cell viability and cytotoxicity were analyzed by MTT and LDH assay, respectively.

[4] = test system: human ovarian cancer cells; test: as above; format: cell-based; conditions: Opti-MEM and HEPES buffer 0-200 mM, 24 h
Protocol: as §2, §3

non Hodgkin's lymphoma = test: Alexa Fluor 488 anti-mouse IgG transfection, immunofluorescent staining; format: cell-based; conditions: HEPES buffer 20 mM-40 mM
Protocol: (§4) Immunofluorescent staining procedure: After protein transfection is completed, the cells in the culture dish were washed three times with phosphate buffered saline (PBS) and fixed with 4% paraformaldehyde for 20 min. The cells were washed again with PBS, perforated with 0.1% Triton X-100 for 5 min, and blocked with 10% BSA for 30 min. For Alexa Fluor 488 anti-mouse IgGs, cells were stained with DAPI for 10 min. For B23, histone 1 or GAPDH antibody transfection, cells were stained with Alexa Fluor 488 or 546 anti-mouse IgG antibodies for 30 min and then stained with DAPI. For […]1 proteins or Flag-Rev peptides transfection, cells were stained with anti-v5 or anti-flag antibodies, respectively, and then stained with Alexa Fluor 488 anti-mouse IgG and DAPI. All images were detected by confocal microscopes (Leica, Wetzlar, Germany). The fluorescent signals were analyzed and quantified by Q-Win software (Leica, Wetzlar, Germany). FIG. 1 schematically illustrates the protein transfection procedure. Briefly, the protein of interest and a protein transfection composition, such as HEPES buffer, were mixed and incubated for about 15 min to about 30 min to form a mixture (Panel A). Cells to be transfected were replaced in a minimal essential medium (Panel B). The mixture in Panel A was added to the cells in Panel B and incubated at 37° C. for about 4 to about 24 hours (Panel C). The protein transfection efficiency can be analyzed using immunofluorescent staining or flow cytometry (Panel D). Alexa Fluor 488 anti-mouse IgG or […]1 were incubated with Opti-MEM (the control group) or HEPES buffer (20 mM-40 mM) to transfect the following cancer cells according to the steps in Example 1: human cervical cancer cells, human breast cancer cells (MCF7, BRCA009 or BRCA011), human endometrial cancer cells, lung adenocarcinoma cells, human pancreatic cancer cells, hepatocellular carcinoma cells, scarcoma cells, renal cell carcinoma cells, lymphoma cells, nasopharyngeal carcinoma cells, brain tumor cells, colon cancer cells, and leukemic cells. The protein transfection efficiency was assessed by flow cytometry or confocal microscope.

brain tumor = test: as above; format: cell-based; conditions: HEPES buffer 20 mM-40 mM
Protocol: as §4

colon cancer = test: as above; format: cell-based; conditions: HEPES buffer 20 mM-40 mM
Protocol: as §4

renal cell carcinoma = test: as above; format: cell-based; conditions: HEPES buffer 20 mM-40 mM
Protocol: as §4

nasopharyngeal carcinoma = test: as above; format: cell-based; conditions: HEPES buffer 20 mM-40 mM
Protocol: as §4

leukemia cells = test: as above; format: cell-based; conditions: HEPES buffer 20 mM-40 mM
Protocol: as §4

scarcoma cells = test: as above; format: cell-based; conditions: HEPES buffer 20 mM-40 mM
Protocol: as §4

[5] = test system: human ovarian cancer cells; test: HEPES-mediated protein transfection pathway with endocytic inhibitors; format: cell-based; conditions: pretreatment 30 min: 0.2-0.4 M sucrose, 5 μg/ml filipin or 0.0125-0.25 mM amiloride; 20 mM HEPES; after 4 hours and 24 hours
Protocol: Immunofluorescent staining procedure: After protein transfection is completed, the cells in the culture dish were washed three times with phosphate buffered saline (PBS) and fixed with 4% paraformaldehyde for 20 min. The cells were washed again with PBS, perforated with 0.1% Triton X-100 for 5 min, and blocked with 10% BSA for 30 min. For Alexa Fluor 488 anti-mouse IgGs, cells were stained with DAPI for 10 min. For B23, histone 1 or GAPDH antibody transfection, cells were stained with Alexa Fluor 488 or 546 anti-mouse IgG antibodies for 30 min and then stained with DAPI. For […]1 proteins or Flag-Rev peptides transfection, cells were stained with anti-v5 or anti-flag antibodies, respectively, and then stained with Alexa Fluor 488 anti-mouse IgG and DAPI. All images were detected by confocal microscopes (Leica, Wetzlar, Germany). The fluorescent signals were analyzed and quantified by Q-Win software (Leica, Wetzlar, Germany). An in vitro evaluation of HEPES-mediated protein transfection pathway was performed using the following endocytic inhibitors: sucrose (a clathrin-mediated endocytic inhibitor), filipin (a caveolae-mediated endocytic inhibitor) and amiloride (a macropinocytic inhibitor). Human ovarian cancer cells were pretreated with Opti-MEM (the control group), 0.2-0.4 M sucrose, 5 μg/ml filipin or 0.0125-0.25 mM amiloride for 30 min, followed by the transfection of Alexa Fluor 488 anti-mouse IgG antibodies using 20 mM HEPES buffer according to the steps in Example 1. The IgG antibody transfection efficiency was assessed by confocal fluorescent microscopy. […] The fluorescent signals of IgG were quantified by Q-Win software, expressed as a relative ratio in FIGS. 12C and 12D (error bars indicate s.e.m. (n=3) and asterisk denotes significant difference, P<0.001). […] The HEPES mediated protein transfection is induced by at least one of the following pathways: clathrin-mediated or caveolae-mediated endocytosis, or macropinocytosis.

SMILES: O=S(=O)(O)CCN1CCN(CCO)CC1 [HEPES buffer, 4-(2-hydroxyethyl)-1-piperazineethanesulfonic acid]
- Alexa Fluor 488 anti-mouse IgG signal using HEPES buffer compared to Opti-MEM [1]: increased
- Alexa Fluor 488 anti-mouse IgG signal using HEPES buffer compared to Opti-MEM [2]: increased
- transfection of Alexa Fluor 488 anti-mouse IgG antibody in the cytoplasm compared to control group (Opti-MEM) ([3]; 20-30 mM HEPES buffer, confocal microscopy): increased
- IgG transfection efficiency compared to commercial protein transfection reagents ([3]; anti-GAPDH antibody, HEPES buffer 20 mM vs PULSin, ProteoJuice, Pro-Ject, Xfect, BioPorter): comparable
- protein transfection efficiency, second incubation time 24 hours compared to 4 hours ([3]; rhSTIP1, 5 mM HEPES buffer): improved
- protein transfection efficiency as a function of HEPES concentration ([3]; rhSTIP1 incubated with HEPES about 15 min, cells in Opti-MEM 4 to 24 hours): increases with a higher HEPES concentration; also recorded: does not increase further with HEPES concentration higher than 30 to 50 mM
- HEPES buffer concentration at which cell growth was inhibited (endometrial cancer cells): 50 mM
- HEPES buffer concentration at which cell growth was inhibited [4]: 50 mM
- Alexa Fluor 488 anti-mouse IgG signal using HEPES buffer compared to Opti-MEM (non Hodgkin's lymphoma): increased
- Alexa Fluor 488 anti-mouse IgG signal using HEPES buffer compared to Opti-MEM (brain tumor): increased
- Alexa Fluor 488 anti-mouse IgG signal using HEPES buffer compared to Opti-MEM (colon cancer): increased
- Alexa Fluor 488 anti-mouse IgG signal using HEPES buffer compared to Opti-MEM (renal cell carcinoma): increased
- Alexa Fluor 488 anti-mouse IgG signal using HEPES buffer compared to Opti-MEM (nasopharyngeal carcinoma): increased
- Alexa Fluor 488 anti-mouse IgG signal using HEPES buffer compared to Opti-MEM (leukemia cells): increased
- Alexa Fluor 488 anti-mouse IgG signal using HEPES buffer compared to Opti-MEM (scarcoma cells): increased

SMILES: N=C(N)NC(=O)c1nc(Cl)c(N)nc1N [amiloride]
- effect on HEPES-mediated IgG transfection [5]: reduced

SMILES: CCCCC[C@@H](O)[C@H]1C(=O)O[C@H](C)[C@@H](O)/C=C/C=C/C=C/C=C/C=C(\C)[C@@H](O)C[C@H](O)C[C@H](O)C[C@H](O)C[C@H](O)C[C@H](O)C[C@@H]1O [filipin]
- effect on HEPES-mediated IgG transfection [5]: reduced

SMILES: OC[C@H]1O[C@@](CO)(O[C@H]2O[C@H](CO)[C@@H](O)[C@H](O)[C@H]2O)[C@@H](O)[C@@H]1O [sucrose]
- effect on HEPES-mediated IgG transfection [5]: reduced

From patent US20180221487A1, “NOVEL PROTEIN TRANSFECTION COMPOSITIONS AND USES THEREOF” (Chang Gung Memorial Hospital, Linkou, priority 2017, published 2018)
